Like-named read-outs stand apart in the source and are kept apart here. One block for each compound: values may come before it.
Experiments:
[1] = Dissolved state of recoflavone in sodium hydroxide aqueous solution; type: physicochemical
Protocol: When recoflavone is not dissolved in purified water, in (S1) step, sodium hydroxide as an alkalizing agent is added in an amount of not less than 1.05 which is the ratio of molar concentration to that of recoflavone. Here, the ratio of molar concentration is expressed as a value by dividing the molar concentration of sodium hydroxide by the molar concentration of recoflavone contained in the ophthalmic composition.
Specifically, (S1) step is a process where sodium hydroxide is added to purified water to prepare an aqueous solution having a molar concentration of not more than 0.16 M or not less than 0.19 M, and then recoflavone is added. Recoflavone can be dissolved transparently through the above process.
The molar concentration of sodium hydroxide is calculated in the above dissolving process not in the final volume of the manufacturing process. […] Therefore an ophthalmic composition cannot be prepared efficiently. The corresponding contents will be described in details with reference to Tables 1, 2 and FIG. 9 below.

[2] = Solubility of recoflavone in water and its pH dependence; type: physicochemical
Source text: (§1) It has a property with low solubility at low pH. As the pH increases, it is ionized and its solubility increases.
In general, an ophthalmic composition is preferably prepared in a transparent solution state in consideration of the feeling of use in eyes and the efficient absorption of the drug. […] Therefore, if recoflavone is not dissolved in purified water for an ophthalmic composition, a transparent solution may be prepared through (S1) step.

[3] = Cell permeability of dissolved recoflavone; type: in vitro ADME; details: high degree of ionization
Source text: as §1

[4] = Drug distribution in each tissue of eye after 3% eye drop administered to rabbit eyes; type: in vivo; details: data not shown
Source text: as §1

[5] = test system: human keratoconjunctival epithelial cells; details: cited from earlier work
[6] = cited from earlier work
[7] = human keratoconjunctival epithelial cells

- Dissolved state ([1]; molar concentration ratio 0.93, NaOH 0.196 M, recoflavone monohydrate 0.211 M): Not transparent
- Dissolved state ([1]; molar concentration ratio 0.97, NaOH 0.196 M, recoflavone monohydrate 0.201 M): Not transparent
- Dissolved state ([1]; molar concentration ratio 1.00, NaOH 0.196 M, recoflavone monohydrate 0.196 M): Not transparent
- Dissolved state ([1]; molar concentration ratio 1.05, NaOH 0.194 M, recoflavone monohydrate 0.184 M): Transparent
- Dissolved state ([1]; molar concentration ratio 1.06, NaOH 0.203 M, recoflavone monohydrate 0.192 M): Transparent
SMILES: COc1ccc(-c2cc(=O)c3c(OC)cc(OCC(=O)O)cc3o2)cc1OC [recoflavone monohydrate]

- solubility at low pH ([2]; low pH): low
- solubility in water ([2]; water): practically insoluble
- cell permeability [3]: poor
- Dissolved state of recoflavone ([1]; NaOH aqueous solution out of the range of not more than 0.16 M or not less than 0.19 M, stirring for several hours): not dissolved transparently
- Dissolved state of recoflavone ([1]; final volume 40 L, recoflavone 5% (w/v), NaOH 0.196 M, purified water 28,000 mL, ratio 1.05~1.06): Transparent
- Dissolved state of recoflavone ([1]; final volume 70 L, recoflavone 5% (w/v), NaOH 0.196 M, purified water 49,000 mL, ratio 1.05~1.06): Transparent
- Dissolved state of recoflavone ([1]; final volume 100 mL, recoflavone 3% (w/v), NaOH 0.086 M, purified water 90 mL, ratio 1.05): Transparent
- Dissolved state of recoflavone ([1]; final volume 100 mL, recoflavone 3% (w/v), NaOH 0.097 M, purified water 80 mL): Transparent
- Dissolved state of recoflavone ([1]; final volume 100 mL, recoflavone 3% (w/v), NaOH 0.111 M, purified water 70 mL): Transparent
- Dissolved state of recoflavone ([1]; final volume 100 mL, recoflavone 5% (w/v), NaOH 0.137 M, purified water 100 mL, ratio 1.05): Transparent
- Dissolved state of recoflavone ([1]; final volume 100 mL, recoflavone 5% (w/v), NaOH 0.152 M, purified water 90 mL): Transparent
- Dissolved state of recoflavone ([1]; final volume 100 mL, recoflavone 5% (w/v), NaOH 0.196 M, purified water 70 mL): Transparent
- Dissolved state of recoflavone ([1]; final volume 100 mL, recoflavone 5% (w/v), NaOH 0.392 M, purified water 70 mL): Transparent
- Dissolved state of recoflavone ([1]; final volume 100 mL, recoflavone 6% (w/v), NaOH 0.204 M, purified water 80 mL): Transparent
- Dissolved state of recoflavone ([1]; final volume 100 mL, recoflavone 6% (w/v), NaOH 0.233 M, purified water 70 mL): Transparent
- Dissolved state of recoflavone ([1]; final volume 100 mL, recoflavone 6% (w/v), NaOH 0.466 M, purified water 70 mL): Transparent
- Dissolved state of recoflavone ([1]; final volume 100 mL, recoflavone 7% (w/v), NaOH 0.195 M, purified water 100 mL, ratio 1.05): Transparent
- Dissolved state of recoflavone ([1]; final volume 100 mL, recoflavone 7% (w/v), NaOH 0.279 M, purified water 70 mL): Transparent
- Dissolved state of recoflavone ([1]; final volume 100 mL, recoflavone 7% (w/v), NaOH 0.558 M, purified water 70 mL): Transparent
SMILES: COc1ccc(-c2cc(=O)c3c(OC)cc(OCC(=O)O)cc3o2)cc1OC [recoflavone, 2-((2-(3,4-dimethoxyphenyl)-5-methoxy-4-oxo-4H-chromen-7-yl)oxy) acetic acid]
- drug concentration in the cornea [4]: high immediately after the administration, but it was rapidly decreased over time
- drug distribution in each tissue of eye with time [4]: rarely distributed in the tissues located inside the eye and mainly distributed in the surrounding tissues outside of the eye
- thickness of the mucin layer ([5]; 100 μM solution): significantly increased
- MUC1, MUC4, MUC16 and MUC5AC by real-time PCR [5, 7]: tendency to increase significantly for four hours and then decreased rapidly
- mucin proteins by Western blot analysis [5, 7]: MUC5AC only had a tendency to increase and the others did not
- hygroscopicity ([6]; form of a hydrate): stable without hygroscopicity
- hygroscopicity ([6]; form of an anhydride): has hygroscopicity

— US20250082603A1, “OPHTHALMIC COMPOSITION CONTAINING RECOFLAVONE FOR THE TREATMENT OF DRY EYE DISEASE AND METHOD FOR PREPARING THE SAME” (GL PHARMTECH CORP., priority 2021, published 2025)
